The record followed here is US10370637B2, “Technology for sustaining pluripotency and improved growth of stem cells in culture” (The Regents of the University of California, priority 2015, dated 2019).

The test system of experiment [1] is human embryonic stem cells (hESC). As to the method:
FIG. 2 is a panel showing that the addition of NaOc.3H2O to hPSC culture medium rescued human embryonic stem cell cultures, improved attachment/spreading, and decreased cell death. […] (2E) Comparison of hESC attachment in mTeSR1 or mTeSR1+10 mM NaOAc.3H2O, (2F) Spreading of colonies in mTeSR1 only is poor; colonies are elevated, not flat, (2G) Spreading of colonies in mTeSR1+10 mM NaOAc.3H2O is improved; colonies are flatter and spread faster. (2H-2M) StemCellQC™ time-lapse video bioinformatics analysis of colonies grown in mTeSR1 only or mTeSR1+10 mM NaOAc. Colonies cultured in mTeSR1+10 mM NaOAc grow faster (2H and 2I), are rounder (normal morphology) (2J), have better motility (2K and 2L), and have fewer dead cells (2M).
This is very important and may be a factor in preventing unwanted differentiation. FIGS. 2H-M show video bioinformatics analysis of live hESC growing in vitro. This analysis was done on time-lapse images of living cultures and allows quantitative comparison between cells grown in different media.

The subject of experiment [2] is hESC colonies. The procedure: Colonies were incubated in mTeSR or mTeSR plus varying concentrations of NaOAc.3H2O.
In experiment [3] the test system is hESC. The conditions noted are these: incubated in mTeSR plus NaOAc.3H2O, then transferred to differentiation medium. As to the method:
(6A) Spontaneous differentiation of hESC incubated in mTeSR only then transferred to differentiation medium. […] (6B) hESC incubated in mTeSR plus NaOAc.3H2O, then transferred to differentiation medium.
These colonies were labeled with an antibody to Pax6, a marker for ectodermal differentiation.

The test system of experiment [4] is human embryonic stem cells (hESC). This is another data set of the same source.
Excerpt: These are hallmarks of healthy pluripotent human embryonic stem cells (hESC) in culture. […] These are not normal pluripotent stem cell morphologies and are observed when colonies begin to differentiate.
Experiment [5] concerns hPSC colonies. The conditions noted are these: Essential-8 + 10 mM NaOAc.3H2O vs Essential-8 alone.
Experiment [6] relates to H9 hESC. The conditions noted are these: H9 colony from another lab, mTeSR1 + 10 mM NaOAc.3H2O, 24 hours.
Where [7] appears, read: mTeSR1 + 10 mM NaOAc vs mTeSR1 only.

Like-named read-outs stand apart in the source and are kept apart here.

On to `CC(=O)[O-].O.O.O.[Na+]` [NaOAc.3H2O, sodium acetate trihydrate], for which, in experiment [1] (setting [7]), the “brightness to area ratio (measurement of cell death)” value is given as “low brightness to area ratio”, the cell death entry was “Fewer cells died”, the colony motility result is given as “Motility was greater” and the growth rate entry is “much faster”. In addition, the “solidity (colony roundness)” value in experiment [1] (setting [7]) is “closer to 1”. Besides, the “spreading of hESC colonies on the substrate” value in experiment [1] (mTeSR1 + 10 mM NaOAc.3H2O vs mTeSR1) is “spread faster on the substrate”. Further, the “attachment of cells to their substrate” value in experiment [1] (mTeSR1 + 10 mM NaOAc.3H2O vs mTeSR1, modest but significantly different) was “enhanced the attachment of cells to their substrate”. The “Oct 4 fluorescence, concentration comparison” value in experiment [2] (10 μM concentration) was “Fluorescence was strongest”. Further, the Oct4A staining result in experiment [2] (mTeSR1 + 5 mM NaOAc) is recorded as “Positive Oct4A staining”. Moreover, in experiment [2] (mTeSR1 + 10 mM NaOAc), the Oct4A staining entry is on record as “Positive Oct4A staining” and the Sox2 staining result is listed as “Positive Sox2 staining”. Further, the “Oct 4 labeling (biomarker for pluripotency)” value in experiment [2] (mTeSR plus varying concentrations of NaOAc.3H2O) is “bright labeling of Oct 4”. Also, the “Pax6 staining (ectodermal marker)” value in experiment [3] is “stained positively for Pax6”. For the same molecule, the colony morphology entry in experiment [4] (mTeSR + 1 mM NaOAc.3H2O) is “little effect on colony morphology”. The colony morphology result in experiment [4] (mTeSR + 5 or 10 mM NaOAc.3H2O) is given as “colony morphology was restored to normal”. In addition, the “passages without differentiation of colonies” value in experiment [4] (passaged in mTeSR with the NaOAc.3H2O supplement) is “over 20 times”. Moreover, the colony morphology result in experiment [5] was “improved morphology”. The colony morphology entry in experiment [6] is on record as “round morphology with smooth edges”.
